What was measured:
[1] = test system: rabbit corneal epithelial cell; assay: Test Example 1: increase in cell number, cultured rabbit corneal epithelial cell (Cell Counting Kit-8); assay type: cell-based; conditions: 48 hours, no addition group = 100%, average ± standard deviation, N = 5
Description: A male rabbit (Japanese white, […] LABES Co., Ltd.) was used. The experimental animal was used according to the International Guiding Principles for Biomedical Research Involving Animals.
A corneal epithelial cell was prepared from rabbit eyeballs. A cornea was excised from isolated eyeballs, and stored in Dulbecco's phosphate buffered saline (D-PBS; Invitrogen), and this was transferred to a clean bench. The following cell preparation procedures were all performed sterilely.
The isolated corneal segment was washed with D-PBS with 1% penicillin-streptomycin (Invitrogen) added thereto three times, and was transferred to a minimum essential medium (MEM; Invitrogen). A corneal endothelial cell and a Descemet's membrane of the corneal segment immersed in MEM were peeled with a knife (Alcon) for ocular operation, and the corneal segment (corneal stroma and corneal epithelium) after peeling was transferred to MEM to which dispase II (Roche Diagnostics) had been added to 2.4 U/mL. This was incubated at 37° C. for 1 hour and, thereafter, the dispase II-treated corneal segment was transferred to MEM. The corneal epithelium of the corneal segment immersed in MEM was peeled with the knife for ocular operation, and the corneal segment residue (corneal stroma) was removed from MEM. The peeled corneal epithelial cell and the MEM containing same were recovered in a 50 mL centrifuge tube, subjected to centrifugation at 1,500 rpm for 5 minutes at room temperature. The supernatant was discarded to give a corneal epithelial cell layer. To the corneal epithelial cell layer was added 1 mL of trypsin-EDTA (Invitrogen) and, after thorough mixing, the cells were incubated at 37° C. for 5 minutes to dissociate adhesion between the cells. To this was added 9 mL of MEM containing 10% fetal bovine serum (FBS; Invitrogen) to stop the enzymatic reaction, and this was subjected again to centrifugation at room temperature and 1,500 rpm for 5 minutes to obtain the corneal epithelial cell layer. To the resulting corneal epithelial cell layer was added […] of a serum-free liquid medium for proliferating a normal rabbit corneal epithelial cell (RCGM2; Kurabo Industries LTD.) to suspend the cell, and this was seeded into a culture dish (IWAKI) for culturing a cell having a diameter of 10 cm, to which 9 mL of RCGM2 had been added. […] The culture medium was exchanged with a fresh culture medium every 48 hours until the test day.
As the test substance, the following compounds were used. • PPARα agonist: WY-14643 (Calbiochem) and fenofibrate (Sigma-Aldrich) • PPARδ agonist: L-165041 (Sigma-Aldrich)
(§1) For studying the effect of promoting cell proliferation by each test substance, a culture medium prepared by removing a mouse-derived epithelial growth factor (mEGF) attached to RCGM2, from RCGM2, was used as a basal medium, while as a positive control for confirming the effect of promoting cell proliferation, a medium with an mEGF added thereto (basal medium+10 ng/mL mEGF) was used according to instructions of an RCGM2 preparation protocol.
As a culture dish for a test of cell proliferation promotion, a 96-well culture dish for tissue culture (Corning) was used. On the day before the test, each 50 μL of 0.01% type I collagen (Nitta Gelatin Inc.) was dispensed into each well of the culture dish, and coating was performed at 4° C. until immediately before the test. On the test day, after a type I collagen solution was removed, the bottom of the culture dish was washed three times using D-PBS, and this was used in the test as a collagen-treated culture dish.
In the test, a rabbit corneal epithelial cell which had been cultured to subconfluent in a culture dish having a diameter of 10 cm was used. After the culture medium was removed, the bottom of the culture dish was washed two times using D-PBS, to this was added 1 mL of trypsin-EDTA, this was incubated at 37° C. for 5 minutes and thereby, the cell was peeled from the bottom of the culture dish. […]

[2] = test system: normal human corneal epithelial cell; assay: Test Example 6: increase in cell number, normal human corneal epithelial cell, 48 hours (Cell Counting Kit-8); assay type: cell-based; conditions: 10^−8 M, no addition group = 100%, average ± standard deviation, N = 4 to 5
Description: (§2) A normal human corneal epithelial cell (KURABO) was used.
As the test substance, the following compounds were used. • PPARδ Agonist: GW-501516 (Alexis), GW-0742 (Sigma-Aldrich)
Only basal medium (no addition group) • [2] Basal medium+GW-501516 (final concentration: 0.01 μM) • [3] Basal medium+GW-0742 (final concentration: 0.01 μM)

[3] = test system: monkey meibomian gland epithelial cell; assay: Test Example 3: increase in cell number, cultured monkey meibomian gland epithelial cell (Cell Counting Kit-8); assay type: cell-based, cynomolgus monkey; conditions: 48 + 48 hours; for Cell proliferation (%): no addition group = 100%, average ± standard deviation, N = 5
Description: A female cynomolgus monkey (Environmental Biological Life Science Research Center) was used. The experimental animal was used according to the International Guiding Principles for Biomedical Research Involving Animals.
A meibomian gland epithelial cell was prepared from a monkey eyelid. An eyelid was isolated, and stored in Dulbecco's phosphate buffered saline (D-PBS; Invitrogen), and this was transferred to a clean bench. The following cell preparation procedures were all performed sterilely.
After the isolated eyelid was immersed in 80% ethanol for 30 seconds, the eyelid was washed with D-PBS with 1% penicillin-streptomycin (Invitrogen) added thereto three times, and transferred to a minimum essential medium (MEM; Invitrogen). A fat tissue and a muscle tissue surrounding a meibomian gland tissue were removed under a stereomicroscope, and this was transferred to MEM containing 0.475 U/mL of collagenase A (Roche Diagnostics) and 2.4 U/mL of dispase II (Roche Diagnostics), and incubated at 37° C. overnight. After completion of incubation, the enzyme-treated tissue was placed again under the stereomicroscope, eyelashes and an eyelid connective tissue were removed, and a meibomian gland tissue was isolated. To the isolated gland tissue was added 1 mL of trypsin-EDTA (Invitrogen), and this was incubated at 37° C. for 5 minutes. After incubation, to this was added 9 mL of MEM containing 10% FBS to stop the enzymatic reaction, then, suction and exhaustion were repeated five times using a 10 mL pipette and, further, five times using an injection syringe equipped with a 21 G injection needle to disperse tissue-constituting cells. […] The cell suspension which had passed through the filter was recovered in a 50 mL centrifuge tube, and subjected to centrifugation at room temperature and 1,500 rpm for 5 minutes. To a cell layer containing an objective cell obtained by centrifugation was added 80 μL of D-PBS containing 0.5% bovine serum albumin (BSA; Sigma-Aldrich) to sufficiently suspend the cell, to this was added 20 μL of Anti-Fibroblast Microbeads (Militenyi Biotec), and this was allowed to stand at room temperature for 30 minutes. After completion of the reaction with an antibody, to this was added 2 mL of D-PBS containing 0.5% BSA, and this was subjected again to centrifugation at room temperature and 1,500 rpm for 5 minutes. To a cell layer containing an objective cell obtained by centrifugation was added 1 mL of D-PBS containing 0.5% BSA to sufficiently suspend the cell, and this was added dropwise to an LD column (Militenyi Biotec) equilibrated in advance using a column washing solution (D-PBS containing 2 mM EDTA (Dojindo Laboratories) and 0.5% BSA). Then, 2 mL of the column washing solution was added dropwise to the LD column. […] The cell recovered in the centrifuge tube was subjected again to centrifugation at room temperature and 1,500 rpm for 5 minutes to remove the supernatant. To this precipitation was added 1 mL of Defined Keratinocyte-Serum Free Medium (DK-SFM; Invitrogen) to suspend the cell and thereby, a meibomian gland epithelial cell suspension was prepared. The prepared cell was seeded on a culture dish (IWAKI) for cell culturing having a diameter of 3.5 cm which had been coated with a type I collagen solution (Nitta Gelatin Inc.) in advance, and to which 3 mL of DK-SFM had been added. The seeded cell was cultured in an incubator (SANYO) set at 37° C., 5% CO2, 95% air, and 100% humidity, and the culture medium was exchanged with a fresh culture medium every 48 hours until the test day.
Each test substance was dissolved in ethanol (Wako Pure Chemical Industries, Ltd.) to a 200-fold concentration of a final concentration in the culture medium, and this was stored at −80° C. until immediately before use.
As a culture dish for a cell proliferation promotion test, a 96-well culture dish for tissue culture (Corning) was used.

[4] = test system: rabbit corneal epithelial cell; assay: Test Example 2: increase in cell number, cultured rabbit corneal epithelial cell, 120 hours (Cell Counting Kit-8); assay type: cell-based; conditions: mEGF 10 ng/mL, no addition group = 100%, average ± standard deviation, N = 5
Description: A male rabbit (Japanese white, weight: about 1.5 kg, […] LABES Co., Ltd.) was used. The experimental animal was used according to the International Guiding Principles for Biomedical Research Involving Animals.
A rabbit corneal epithelial cell was prepared using the same process as that of (Test example 1).
As the test substance, the following compounds were used. • PPARδ agonist: L-165041 (Sigma-Aldrich) and GW-501516 (Alexis)
as §1
Collagen treatment of the culture dish was performed using the same process as that of (Test Example1).
In the test, a rabbit corneal epithelial cell which had been cultured to subconfluent in a culture dish having a diameter of 10 cm was used. After the culture medium was removed, the bottom of the culture dish was washed two times using D-PBS, to this was added 1 mL of trypsin-EDTA, this was incubated at 37° C. for 5 minutes and thereby, the cell was peeled from the bottom of the culture dish. After incubation, 9 mL of MEM containing 10% FBS was added to the culture dish to stop the enzymatic reaction, and this was subjected to centrifugation at room temperature and 1,500 rpm for 5 minutes to obtain a corneal epithelial cell layer. To the resulting cell was added an appropriate amount of RCGM2 to a cell concentration of 1×10^5 cells/mL to suspend the cell. Each 64 μL of this cell suspension was dispensed in each well at the cell number per bottom area (0.32 cm^2) of the collagen-treated 96-well culture dish for tissue culture of […]. […] After 24 hours from cell seeding, the culture medium was discarded, and each 100 μL of the following culture media were freshly dispensed into each well of the culture dish. • [1] Only basal medium (no addition group) • [2] Basal medium+mEGF (final concentration: 10 ng/mL; positive control group) • [3] Basal medium+L-165041 (final concentration: 0.1 μM and 1 μM) • [4] Basal medium+GW-501516 (final concentration: 0.01 μM and 0.1 μM)
The culture supernatant of each well was removed every 48 hours from exchange of the culture medium containing a test substance, and each 100 μL of the freshly prepared culture medium was dispensed into each well.

[5] = test system: normal human corneal epithelial cell; assay: Test Example 5: increase in cell number, normal human corneal epithelial cell, 24 hours (Cell Counting Kit-8); assay type: cell-based; conditions: mEGF 1 ng/mL, no addition group = 100%, average ± standard deviation, N = 3 to 4
Description: as §2
As the test substance, the following compounds were used. PPARδ agonist: L-165041 (Sigma-Aldrich), GW-501516 (Alexis)
In addition, as a positive control for confirming the cell proliferation promoting effect, a medium in which a mouse-derived epithelial growth factor (mEGF) contained in an HCGS proliferation additive set (KURABO) was added to a basal medium (basal medium+1 ng/mL mEGF) was used.
This cell suspension was seeded on a fibronectin-coated multiwell plate (24 well, BECTON DICKINSON) so that the cell number became 2×10^4 cells/500 μL/well (since the bottom area is 2 cm^2, the number is 1×10^4 cells/cm^2).
Further, 24 hours thereafter, the culture medium was exchanged with each 400 μL of the following culture media. • [1] Only basal medium (no addition group) • [2] Basal medium+mEGF (final concentration: 1 ng/mL; positive control group) • [3] Basal medium+L-165041 (final concentration: 0.01 μM and 0.1 μM) • [4] Basal medium+GW-501516 (final concentration: 0.001 μM and 0.01 μM)

Cc1cccc(Nc2cc(Cl)nc(SCC(=O)O)n2)c1C [WY-14643, ((4-chloro-6-((2,3-dimethylphenyl)amino)-2-pyrimidinyl)thio)acetic acid]
Cell proliferation (%) ([1]; 10^−6 M): 155.5 ± 9.4%
Cell proliferation (%) ([1]; 10^−7 M): 148.9 ± 15.0%

Cc1cc(SCc2sc(-c3ccc(C(F)(F)F)c(F)c3)nc2C)ccc1OCC(=O)O [GW-0742, (4-(((2-(3-fluoro-4-(trifluoromethyl)phenyl)-4-methyl-5-thiazolyl)methyl)thio)-2-methylphenoxy)acetic acid]
Cell proliferation (%) [2]: 124.1 ± 13.5%

CC(C)OC(=O)C(C)(C)Oc1ccc(C(=O)c2ccc(Cl)cc2)cc1 [fenofibrate, 1-methylethyl 2-(4-(4-chlorobenzoyl)phenoxy)-2-methylpropionate]
Cell proliferation (%) ([1]; 10^−5 M): 147.0 ± 3.2%
Cell proliferation (%) ([1]; 10^−6 M): 147.3 ± 11.8%
Cell proliferation (%) ([3]; 10^−5 M): 127.8 ± 5.2%
Cell proliferation (%) ([3]; 10^−6 M): 114.5 ± 4.5%
cell proliferation compared to the no addition group (in words) ([3]; p<0.01 where significant): significantly higher than in the no addition group

mEGF: mouse-derived epithelial growth factor, positive control for cell proliferation (NSYPGCPSSYDGYCLNGGVCMHIESLDSYTCNCVIGYSGDRCQTRDLRWWELR; not fully specified; Epidermal growth factor; UniProt P01132 977-1029, looked up)
Cell proliferation (%) ([1]; mEGF 10 ng/mL): 144.1 ± 23.1%
Cell proliferation (%) [4]: 222.1 ± 50.9%
Cell proliferation (%) [5]: 112.1 ± 1.5%

Cc1c(C)c2c(c(C)c1O)CCC(C)(COc1ccc(CC3SC(=O)NC3=O)cc1)O2 (stereo not shown) [troglitazone]
Cell proliferation (%) ([3]; 10^−6 M): 99.9 ± 1.9%
Cell proliferation (%) ([3]; 10^−7 M): 101.6 ± 4.0%

— patent publication US9096538B2, “Pharmaceutical comprising PPAR agonist” (Senju Pharmaceutical Co., Ltd., priority 2005, dated 2015)
